This is an account of results in US20090028925A1, “Novel Phosphinic Acid-Containing Thyromimetics” (priority 2005, published 2009).

Each structure is given as a SMILES string. pKi: −log10 of the molar value. Where two headings read alike, the source gives them in different places.

Data set [1] has as its target T1, human thyroid hormone receptors TRβ1 (Homo sapiens, UniProt P10828).
T1 construct: made in house; host or cells: Sf9 insect cells (baculovirus)
T1 sequence (P10828 1-461): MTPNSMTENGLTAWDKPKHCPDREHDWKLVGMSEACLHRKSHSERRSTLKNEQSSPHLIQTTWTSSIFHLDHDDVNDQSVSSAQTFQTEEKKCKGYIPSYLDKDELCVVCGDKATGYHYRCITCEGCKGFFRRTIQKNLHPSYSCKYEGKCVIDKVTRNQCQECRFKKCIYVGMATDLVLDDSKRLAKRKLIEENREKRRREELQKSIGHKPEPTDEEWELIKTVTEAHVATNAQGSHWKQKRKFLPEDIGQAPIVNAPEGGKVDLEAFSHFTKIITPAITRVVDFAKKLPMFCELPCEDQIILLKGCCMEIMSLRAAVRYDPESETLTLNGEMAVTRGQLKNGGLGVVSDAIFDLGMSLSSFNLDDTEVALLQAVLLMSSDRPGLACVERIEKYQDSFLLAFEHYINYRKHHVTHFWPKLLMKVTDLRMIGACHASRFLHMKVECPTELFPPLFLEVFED
T1 sequence (P19793 1-462 partner): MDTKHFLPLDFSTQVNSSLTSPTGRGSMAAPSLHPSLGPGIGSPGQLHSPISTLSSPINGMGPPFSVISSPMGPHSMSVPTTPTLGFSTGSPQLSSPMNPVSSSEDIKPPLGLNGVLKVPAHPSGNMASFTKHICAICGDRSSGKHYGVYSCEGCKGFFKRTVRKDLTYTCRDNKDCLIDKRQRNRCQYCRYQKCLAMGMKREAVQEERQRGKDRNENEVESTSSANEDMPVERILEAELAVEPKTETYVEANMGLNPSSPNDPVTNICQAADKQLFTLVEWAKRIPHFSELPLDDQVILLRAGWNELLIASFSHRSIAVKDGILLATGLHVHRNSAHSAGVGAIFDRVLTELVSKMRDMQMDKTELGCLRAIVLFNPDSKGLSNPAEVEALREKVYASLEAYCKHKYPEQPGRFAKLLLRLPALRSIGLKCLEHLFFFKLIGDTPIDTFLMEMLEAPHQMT
Briefly: Receptor binding to TRβ1 (gel filtration and scintillation proximity assay, labeled T3). The conditions noted are these: SPA data; read-out: Ki TRβ. Background: In gel filtration, larger molecules generally elute earlier.

The target in data set [2] is T2, human thyroid hormone receptors TRα1 (Homo sapiens, UniProt P10827).
T2 construct: made in house; host or cells: Sf9 insect cells (baculovirus)
T2 sequence (P10827 1-410 isoform P10827-2): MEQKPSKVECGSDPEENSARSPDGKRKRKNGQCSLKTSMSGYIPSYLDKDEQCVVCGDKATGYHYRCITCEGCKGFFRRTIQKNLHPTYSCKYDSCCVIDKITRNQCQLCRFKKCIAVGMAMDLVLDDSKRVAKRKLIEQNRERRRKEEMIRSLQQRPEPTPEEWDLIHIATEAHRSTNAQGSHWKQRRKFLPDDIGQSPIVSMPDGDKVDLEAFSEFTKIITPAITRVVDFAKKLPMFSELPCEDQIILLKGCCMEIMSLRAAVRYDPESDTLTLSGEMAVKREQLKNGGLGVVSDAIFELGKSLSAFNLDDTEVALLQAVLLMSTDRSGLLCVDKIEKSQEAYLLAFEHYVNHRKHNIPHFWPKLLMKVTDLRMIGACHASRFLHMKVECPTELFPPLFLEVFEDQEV
T2 sequence (P19793 1-462 partner): T1 sequence (P19793 1-462 partner)
Briefly: Receptor binding to TRα1 (gel filtration and scintillation proximity assay, labeled T3). The note with it: SPA data; read-out: Ki TRα.

Data set [3] deals with CYP3A (cytochrome P450-3A (CYP3A4)). Briefly: Prodrug activation in rat liver microsomes. In kind it is in vitro ADME. The conditions noted are these: liver microsomes from dexamethasone-treated rats; dexamethasone treated rat microsomes, formation of Compound 7. An excerpt:
(§1) The purpose of these studies was to determine the kinetics of activation of prodrugs of thyromimetics in microsomal preparations. Microsomes contain the P450 enzyme that is required for the activation of many of the prodrugs prepared. The Km, Vmax, and intrinsic clearance values determined are measures of prodrug affinity for the microsomal enzymes, the rate at which the prodrug is activated, and the catalytic efficiency with which the prodrug is activated, respectively.
(§2) Methods: Activation of prodrugs by dexamethasone treated rat hepatocyte microsomes. Microsomes were isolated by standard differential centrifugation methods from dexamethasone-treated rats. The treatment is to increase cytochrome P450-3A (CYP3A4) activity. Induction of CYP3A4 was confirmed by an increase in testosterone hydroxylation.
(§3) Various concentrations of HepDirect™ Compound 7 were incubated with rat hepatocytes microsomes. Compound 7 formation was analyzed by HPLC using UV-Vis detection. Kinetic parameters (Vmax and Km) were calculated from the transformed data and the intrinsic clearance calculated from the kinetic parameters.

Data set [4] is described as follows: Prodrug activation in rat liver microsomes. In kind it is in vitro ADME. The note with it: for Vmax: dexamethasone treated rat microsomes, formation of Compound 7; for microsomal CLint: rat, liver microsomes from dexamethasone-treated rats, intrinsic clearance calculated from the kinetic parameters.
From the text: as §1, §2, §3

The subject of the next data set is plasma cholesterol. Kind of data set: Cholesterol lowering in hypercholesterolemic rats. In kind it is in vivo. The note with it: Rattus norvegicus, read-out: % Cholesterol Lowering.
The nature of data set [5]: Continuous infusion study in rats on a cholesterol-containing diet. In kind it is in vivo. The conditions noted are these: continuous infusion 1 mg/kg/day; for cholesterol lowering effects: day 7 and day 14; for cardiovascular parameters (heart rate, LV dP/dt, systolic and diastolic blood pressure): day 7 or day 14.
Method: Screening for thyromimetic activity was performed in normal rats maintained on a cholesterol-containing diet. Compounds were administered by continuous infusion using an osmotic pump at 1 mg/kg/day.
Details of data set [6]: species or system rats. The note with it: in vivo, po. The method, then: The oral bioavailability (OBAV) of Compound 12-1, a bis POM prodrug of Compound 7, was estimated by comparison of the dose-normalized area under the curve (AUC) of the plasma concentration-time profile of Compound 7 following IV and PO administration of Compound 7 and Compound 12-1, respectively, to normal rats.
Method: Groups of non-fasted male SD rats were administered either 5 mg/kg of Compound 7 by IV bolus or 20 mg/kg of Compound 12-1 by oral gavage. Prior to drug administration, the rats were catheterized at the tail artery to facilitate blood collection. Plasma samples were obtained at pre-specified time points following dosing, extracted with 1.5 volumes of methanol, and then assayed by an LC-UV method using a C18 column eluted with a gradient of 20% to 45% v/v acetonitrile in a potassium phosphate buffer pH 6.2 over 15 min with UV absorbance monitoring at 280 nm. The AUC values were determined noncompartmentally from the plasma concentration-time plots by trapezoidal summation to the last measurable time point.
Plasma levels of compound were analyzed by HPLC and the AUCs for the i.v. dose of 5 mg/kg and the p.o. dose of 20 mg/kg were compared. The maximum OBAV for Compound 19-2 was 0.003%. Typically, compounds that are taken forward as an oral drug candidate have OBAV values of at least 15-20%, when tested in an animal model. This minimal requirement for OBAV in a genetically homogenous model system insures that exposure can be accurately monitored when humans are treated with the compound. Furthermore, in a genetically variable background such as humans, the variability for a compound with low OBAV in genetically homogenous model systems, can be widely variable, leading some subjects to have much higher than anticipated exposure, while other subjects have no exposure.

For data set [7] the following is noted: effects on cholesterol and TSH at the same or not pharmacologically different doses; cited from earlier work.

A word on the pKi: it is the Ki on a negative log10 scale, so that one unit is a factor of ten. In general, Km refers to the concentration of substrate that gives half-maximal velocity. In general, Vmax refers to the top rate of the reaction or transport when substrate is in excess. A word on the microsomal CLint: it is a measure of how fast metabolising enzymes remove a compound, apart from limits set by blood flow. As to `Cc1cc(OC[P@@]2(=O)OCC[C@@H](c3cccnc3)O2)cc(C)c1Cc1ccc(O)c(C(C)C)c1` [Compound 13-4-cis, 2-[(3,5-dimethyl-4-(4′-hydroxy-3′-iso-propylbenzyl)phenoxy)methyl]-4-(pyrid-3-yl)-2-oxo-2λ^5-[1,3,2]-dioxaphosphonane], the pKi in data set [1] was 5.82; in data set [2], 5.26. Further, in data set [3], the Km was 100 µM. Besides, the “Vmax” value in data set [4] is given as 2983 pmol/min/mg. Besides, in data set [4], the microsomal CLint was 30 µL/min/mg.

In the case of `Cc1cc(OC[P@]2(=O)OCC[C@H](c3ccc(Cl)cc3)O2)cc(C)c1Cc1ccc(O)c(C(C)C)c1` [Compound 13-6-cis, 2-[(3,5-dimethyl-4-(4′-hydroxy-3′-iso-propylbenzyl)phenoxy)methyl]-4-(4-chlorophenyl)-2-oxo-2λ^5-[1,3,2]-dioxaphosphonane], the negative logarithm of the Ki (pKi) in data set [1] was 5.45. In addition, the pKi in data set [2] was 5.33. The Km in data set [3] was found to be 10 µM. For the same compound, in data set [4], the “Vmax” value is recorded as 598 pmol/min/mg and the microsomal CLint is 62 µL/min/mg.

With `Cc1cc(OCP(C)(=O)O)cc(C)c1Cc1ccc(O)c(C(C)C)c1` [Compound 70, [3,5-dimethyl-4-(4′-hydroxy-3′-iso-propylbenzyl)phenoxymethyl]methylphosphinic acid], the change in vivo at 0.2 mg/kg/day in the data set with plasma cholesterol (po, delivered p.o. (0.2 mg/kg/d), percentage change from pre-dose cholesterol) was -32.8%. In addition, in data set [5], the cholesterol lowering effects result is given as “demonstrated cholesterol lowering effects”; the “cardiovascular parameters (heart rate, LV dP/dt, systolic and diastolic blood pressure)” value (“cardiovascular parameters” for short) is reported as “no changes in any of the cardiovascular parameters”. Also, in data set [1], the pKi is 8.27. In data set [2], the pKi was 6.74.

Consider `CCOP(=O)(O)COc1cc(C)c(Cc2ccc(O)c(C(C)C)c2)c(C)c1` [Compound 69-1, [3,5-dimethyl-4-(4′-hydroxy-3′-iso-propylbenzyl)phenoxy]methylphosphonic acid monoethyl ester], for which, in data set [5], the cholesterol lowering effects entry is on record as “demonstrated cholesterol lowering effects”; the “cardiovascular parameters” value is “no changes in any of the cardiovascular parameters”.

As for `Cc1cc(OC[P@@]2(=O)OCC[C@@H](c3cccc(F)c3)O2)cc(C)c1Cc1ccc(O)c(C(C)C)c1` [Compound 13-3-cis], the results for the pKi in data set [1] and in data set [2] were 5.46 and 5.55, respectively. Further, the Km in data set [3] was 46 µM. In data set [4], the “Vmax” value was 2118 pmol/min/mg. For the same compound, the microsomal CLint in data set [4] is 46 µL/min/mg.

With `CC(C)c1cc(Oc2c(Br)cc(CP(=O)(O)O)cc2Br)ccc1O` [Compound 19-2, [3,5-dibromo-4-(4′-hydroxy-3′-iso-propylphenoxy)]benzylphosphonic Acid], the pKi in data set [1] is 7.70; in data set [2], 6.46. The “absorption in the rat” value in data set [6] is reported as “not adequately absorbed”.

`Cc1cc(OC[P@@]2(=O)OCC[C@@H](c3cccc(Br)c3)O2)cc(C)c1Cc1ccc(O)c(C(C)C)c1` [Compound 13-2-cis, 2-[(3,5-dimethyl-4-(4′-hydroxy-3′-iso-propylbenzyl)phenoxy)methyl]-4-(3-bromophenyl)-2-oxo-2λ^5-[1,3,2]-diox aphosphonane]: the pKi is 6.38 in data set [1] and 6.31 in data set [2]. Moreover, in data set [3], the Km is 8 µM. In addition, the “Vmax” value in data set [4] worked out at 694 pmol/min/mg. In addition, the microsomal CLint in data set [4] is 86 µL/min/mg.

On to `Cc1cc(OCP(=O)(OCOC(=O)OC(C)C)OCOC(=O)OC(C)C)cc(C)c1Cc1ccc(O)c(C(C)C)c1` [Compound 12-3, di(isopropoxycarbonyloxymethyl)[3,5-dimethyl-4-(4′-hydroxy-3′-iso-propylbenzyl)phenoxy]methylphosphonate], for which the pKi is 6.81 in data set [1] and 6.13 in data set [2]. For the same compound, the Km in data set [3] is 14 µM. The “Vmax” value in data set [4] is 775 pmol/min/mg. Moreover, the microsomal CLint in data set [4] is 54 µL/min/mg.

Turning to `COP(=O)(O)COc1cc(C)c(Cc2ccc(O)c(C(C)C)c2)c(C)c1` [Compound 69, [3,5-dimethyl-4-(4′-hydroxy-3′-iso-propylbenzyl)phenoxy]methylphosphonic acid monomethyl ester], the change in vivo at 0.2 mg/kg/day with plasma cholesterol (po) is -41.9%. Further, the cholesterol lowering effects entry in data set [5] is “demonstrated cholesterol lowering effects”. In addition, in data set [5], the “cardiovascular parameters” value is given as “no changes in any of the cardiovascular parameters”. Also, the pKi is 8.52 in data set [1] and 7.87 in data set [2].

Consider `Cc1cc(OC[P@@]2(=O)OCC[C@@H](c3ccncc3)O2)cc(C)c1Cc1ccc(O)c(C(C)C)c1` [Compound 13-5-cis, 2-[(3,5-dimethyl-4-(4′-hydroxy-3′-iso-propylbenzyl)phenoxy)methyl]-4-(pyrid-4-yl)-2-oxo-2λ^5-[1,3,2]-dioxaphosphonane], for which the negative logarithm of the Ki (pKi) in data set [1] is 6.00. Moreover, in data set [2], the pKi was 5.35. Further, in data set [3], the Km worked out at 113 µM. In data set [4], the maximum rate (Vmax) was 3266 pmol/min/mg and the microsomal CLint was 29 µL/min/mg.

For `Cc1cc(Cc2c(C)cc(OCP(=O)(O)O)cc2C)cc(C(C)C)c1O` [Compound 7-10, [3,5-dimethyl-4-(4′-hydroxy-3′-iso-propyl-5′-methyl benzyl)phenoxy]methylphosphonic Acid], the change in vivo at 0.2 mg/kg/day in the data set on plasma cholesterol (ip, delivered i.p (0.2 mg/kg/d), percentage change from pre-dose cholesterol) is -25.8%. Further, the figures for the pKi in data set [1] and in data set [2] were 7.32 and 6.95, respectively.

For `Cc1cc(OCC(=O)O)cc(C)c1Cc1ccc(O)c(C(C)C)c1` [GC-1, [4-[[4-hydroxy-3-(1-methylethyl)phenyl]methyl]-3,5-dimethylphenoxy]acetic acid], in data set [7], the TSH levels result is “dose-dependently lower” and the cholesterol levels entry was “dose-dependently lower”.
